Measured values from article PMC8222394 (Nature Communications, 2021).
Where “and” joins values, the source holds several entries; their conditions need not be identical. Identical values can stand only once. Like-named read-outs stand apart in the source and are kept apart here.

Columns and labels:
[1] = in vitro; settings: human
[2] = human, cited from earlier work
[3] = tested on: SARS-CoV-2 pseudovirus; format: cell-based
[4] = tested on: SARS-CoV-2 pseudovirus; experiment: microbe, parasite or virus in culture; format: cell-based; settings: for IC50: Severe acute respiratory syndrome-related coronavirus, Caco-2, read-out: In vitro IC50 (viral entry)
[5] = molecular target: TMPRSS2 (Homo sapiens, UniProt O15393); experiment: TMPRSS2 activity assay (Boc-Gln-Ala-Arg-MCA fluorescence); format: biochemical; parameters: purchased LSBio; settings: replicates
Description: Fluorescence (380-15 nm excitation/470-20 nm emission) of the samples was monitored over 4:45 h and the slope of the curves was calculated by linear regression analysis and used as output for TMPRSS2 activity.

[6] = tested on: TMPRSS2-HiBiT-BEAS-2B cells
[7] = parameters: method as in Selleck L1300 library file; settings: ref Selleck L1300 library file, cited from earlier work
[8] = tested on: B-RafV600E; parameters: method as in selleckchem.com; settings: ref selleckchem.com, cited from earlier work

Chain of TMPRSS2 (O15393 106-492): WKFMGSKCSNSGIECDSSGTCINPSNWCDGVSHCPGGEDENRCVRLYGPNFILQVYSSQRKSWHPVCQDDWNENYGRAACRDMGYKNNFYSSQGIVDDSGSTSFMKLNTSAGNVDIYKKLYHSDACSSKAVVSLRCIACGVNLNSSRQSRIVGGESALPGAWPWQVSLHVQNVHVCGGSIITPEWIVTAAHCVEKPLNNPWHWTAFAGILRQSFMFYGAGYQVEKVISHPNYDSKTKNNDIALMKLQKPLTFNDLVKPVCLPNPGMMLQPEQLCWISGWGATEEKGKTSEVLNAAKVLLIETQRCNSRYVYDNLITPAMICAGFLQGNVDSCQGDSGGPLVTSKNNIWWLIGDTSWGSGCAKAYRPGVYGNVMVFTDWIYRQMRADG

In the case of `CC1(C)CCC(CN2CCN(c3ccc(C(=O)NS(=O)(=O)c4ccc(NCC5CCOCC5)c([N+](=O)[O-])c4)c(Oc4cnc5[nH]ccc5c4)c3)CC2)=C(c2ccc(Cl)cc2)C1` [Venetoclax], the CC50 [1] is given as over 10 µM, the Cmax ([2]; 400 mg Oral (QD)) is given as 1270 nM and the “signal relative to Vehicle (FigS7 source data)” value (from here on “signal relative to Vehicle”) [3] is given as 0.618 and 0.6416 and 0.6544. For the same compound, the “viral entry” value [4] was “effective in reducing viral entry” and the IC50 [4] was over 10 µM.

In the case of `Cc1nc(Nc2ncc(C(=O)Nc3c(C)cccc3Cl)s2)cc(N2CCN(CCO)CC2)n1` [Dasatinib], the CC50 [1] is listed as over 10 µM, the Cmax ([2]; 140 mg Oral (QD)) is listed as 307 nM and the “signal relative to Vehicle” value [3] is listed as 0.6399 and 0.7584 and 0.6593. The “viral entry” value [4] was “effective in reducing viral entry” and the IC50 [4] was over 10 µM.

For `CN(C)C(=O)COC(=O)Cc1ccc(OC(=O)c2ccc(NC(=N)N)cc2)cc1` [Camostat], the “signal relative to Vehicle” value [3] was 0.7432 and 0.6624 and 0.6548, the “TMPRSS2 activity (FigS9 source data)” value ([5]; 0.08 µM) was -0.0086 and -0.0028 and 0.0044 and -0.0059 and the “TMPRSS2 activity (FigS9 source data)” value ([5]; 0.4 µM) was -0.037 and -0.0342 and -0.033 and -0.0254. The “TMPRSS2 activity (FigS9 source data)” value ([5]; 2 µM) was -0.0401 and -0.0361 and -0.044 and -0.0525.

Verteporfin [reference compound] gave a CC50 [6] of over 10 µM.

For `CNC(=O)c1ccccc1Sc1ccc2c(/C=C/c3ccccn3)n[nH]c2c1` [Axitinib], the “DMSO (mM)Max Solubility” value [7] is given as 90.56 mM, the “DMSO (mg/mL)Max Solubility” value [7] is given as 35.00 mg/mL and the “water (mg/mL)Max Solubility” value ([7]; water) is given as under 1 mg/mL.

For `Cc1nc(C(=O)NCC(=O)O)c(O)c2ccc(Oc3ccccc3)cc12` [Roxadustat (FG-4592), Roxadustat], the “DMSO (mM)Max Solubility” value [7] is listed as 198.67 mM, the “DMSO (mg/mL)Max Solubility” value [7] is listed as 70.00 mg/mL and the “water (mg/mL)Max Solubility” value ([7]; water) is listed as under 1 mg/mL.

In the case of `C[C@H]1O[C@H](O[C@H]2[C@H](O)[C@@H](O)[C@@H](O[C@H]3[C@H](O)[C@@H](O)C(O)O[C@@H]3CO)O[C@@H]2CO)[C@H](O)[C@@H](O)[C@@H]1N[C@H]1C=C(CO)[C@@H](O)[C@H](O)[C@H]1O` (stereo partly drawn) [Acarbose], the “DMSO (mM)Max Solubility” value [7] is listed as 154.89 mM, the “DMSO (mg/mL)Max Solubility” value [7] is listed as 100.00 mg/mL and the “water (mM)Max Solubility” value ([7]; water) is listed as 154.89 mM. For the same compound, the “water (mg/mL)Max Solubility” value ([7]; water) was 100.00 mg/mL.

In the case of `COC(=O)Nc1nc2cc(C(=O)c3ccc(F)cc3)ccc2[nH]1` [Flubendazole], the “ATP Glo” value ([6]; conc 3) is reported as 0.991 and 1.045 and 1.023.

For `CCCS(=O)(=O)Nc1ccc(F)c(C(=O)c2c[nH]c3ncc(-c4ccc(Cl)cc4)cc23)c1F` [Vemurafenib (PLX4032, RG7204), Vemurafenib], the “DMSO (mM)Max Solubility” value [7] is given as 197.99 mM, the “DMSO (mg/mL)Max Solubility” value [7] is given as 97.00 mg/mL and the “water (mg/mL)Max Solubility” value ([7]; water) is given as under 1 mg/mL. The IC50 ([8]; cell-free assay) was 0.031 µM and the “selectivity for B-RafV600E over wild-type B-Raf” value ([8]; enzymatic assays) was 10 fold.

For `Cc1coc2c1C(=O)C(=O)c1c-2ccc2c1CCCC2(C)C` [Tanshinone IIA], the “ATP Glo” value ([6]; conc 0.01) was 1.137 and 1.427 and 1.128.

For `COCCOC(=O)C1=C(C)NC(C)=C(C(=O)OC/C=C/c2ccccc2)C1c1cccc([N+](=O)[O-])c1` (stereo not drawn) [Cilnidipine], the CC50 [1] is given as over 10 µM, the Cmax ([2]; 10 mg Oral (QD)) is given as 18.1 nM and the “viral entry” value [4] is given as “effective in reducing viral entry”. The IC50 [4] was about 3 µM.
